Measurements reported in PubChem BioAssay (NCI).
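Growth conditions: 96-well plates. Treatment: test compound, 48 hours, 5 concentrations. Analysis: linear interpolation between bracketing concentrations; unreached endpoints set to highest concentration. The concentration for 50% growth inhibition is given as GI50. TGI is the concentration that stops growth completely.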

What was measured:
Experiment in all cases: NCI-60 cell line screen, 48 h
OVCAR-5 ovarian = system: OVCAR-5 ovarian
A549 NSCLC = system: A549 NSCLC
CAKI-1 renal = system: CAKI-1 renal
SF-268 CNS = system: SF-268 CNS
MOLT-4 leukemia = system: MOLT-4 leukemia
RXF 393 renal = system: RXF 393 renal
IGROV1 ovarian = system: IGROV1 ovarian
BT-549 breast = system: BT-549 breast
SNB-75 CNS = system: SNB-75 CNS
SR leukemia = system: SR leukemia
MCF7 breast = system: MCF7 breast
SK-OV-3 ovarian = system: SK-OV-3 ovarian
PC-3 prostate = system: PC-3 prostate
HS 578T breast = system: HS 578T breast
MDA-MB-435 = system: MDA-MB-435
SK-MEL-2 melanoma = system: SK-MEL-2 melanoma
ACHN renal = system: ACHN renal
NCI-H522 lung = system: NCI-H522 lung
A498 renal = system: A498 renal
UACC-62 melanoma = system: UACC-62 melanoma
HCT-15 colon = system: HCT-15 colon
TK-10 renal = system: TK-10 renal
786-0 renal = system: 786-0 renal
NCI-H460 lung = system: NCI-H460 lung
DU-145 prostate = system: DU-145 prostate
U251 CNS = system: U251 CNS
NCI-H226 lung = system: NCI-H226 lung
MALME-3M melanoma = system: MALME-3M melanoma
HT29 colon = system: HT29 colon
EKVX NSCLC = system: EKVX NSCLC
KM12 colon = system: KM12 colon
UO-31 renal = system: UO-31 renal
OVCAR-3 ovarian = system: OVCAR-3 ovarian
SF-539 CNS = system: SF-539 CNS
LOX IMVI melanoma = system: LOX IMVI melanoma
OVCAR-8 ovarian = system: OVCAR-8 ovarian
M14 melanoma = system: M14 melanoma
MDA-MB-231 breast = system: MDA-MB-231 breast
RPMI-8226 leukemia = system: RPMI-8226 leukemia
COLO 205 colon = system: COLO 205 colon
HCT-116 colon = system: HCT-116 colon
NCI-H23 lung = system: NCI-H23 lung
SK-MEL-28 melanoma = system: SK-MEL-28 melanoma
NCI/ADR-RES ovarian = system: NCI/ADR-RES ovarian
HCC-2998 colon = system: HCC-2998 colon
SF-295 CNS = system: SF-295 CNS
SNB-19 CNS = system: SNB-19 CNS
K-562 leukemia = system: K-562 leukemia
UACC-257 melanoma = system: UACC-257 melanoma
OVCAR-4 ovarian = system: OVCAR-4 ovarian
SK-MEL-5 melanoma = system: SK-MEL-5 melanoma
T-47D breast = system: T-47D breast
SN12C renal = system: SN12C renal
HOP-62 NSCLC = system: HOP-62 NSCLC
SW-620 colon = system: SW-620 colon
CCRF-CEM leukemia = system: CCRF-CEM leukemia
HL-60(TB) leukemia = system: HL-60(TB) leukemia

COc1ccc2c(c1)CC[C@@H]1[C@@H]2CC[C@]2(C)c3c(cc(C(=O)O)c4sccc34)C[C@@H]12
GI50 (OVCAR-5 ovarian): 26 µM | TGI (OVCAR-5 ovarian): 50.1 µM | GI50 (A549 NSCLC): 11.2 µM | TGI (A549 NSCLC): 35.9 µM | GI50 (CAKI-1 renal): 33.8 µM | TGI (CAKI-1 renal): 63.7 µM | GI50 (SF-268 CNS): 17.6 µM | TGI (SF-268 CNS): 48.3 µM | GI50 (MOLT-4 leukemia): 10.1 µM | TGI (MOLT-4 leukemia): 25.4 µM | GI50 (RXF 393 renal): 16.5 µM | TGI (RXF 393 renal): 36 µM | GI50 (IGROV1 ovarian): 29.7 µM | TGI (IGROV1 ovarian): > 100 µM | GI50 (BT-549 breast): 18.7 µM | TGI (BT-549 breast): 38.8 µM | GI50 (SNB-75 CNS): 20.8 µM | TGI (SNB-75 CNS): 47.9 µM | GI50 (SR leukemia): 16.4 µM | TGI (SR leukemia): 45.1 µM | GI50 (MCF7 breast): 17.2 µM | TGI (MCF7 breast): 59 µM | GI50 (SK-OV-3 ovarian): 26 µM | TGI (SK-OV-3 ovarian): 61.2 µM | GI50 (PC-3 prostate): 10.5 µM | TGI (PC-3 prostate): 25.1 µM | GI50 (HS 578T breast): 28.7 µM | TGI (HS 578T breast): 96.1 µM | GI50 (MDA-MB-435): 18.4 µM | TGI (MDA-MB-435): 39.6 µM | GI50 (SK-MEL-2 melanoma): 37.5 µM | TGI (SK-MEL-2 melanoma): > 100 µM | GI50 (ACHN renal): 18.9 µM | TGI (ACHN renal): 78.4 µM | GI50 (NCI-H522 lung): 24.7 µM | TGI (NCI-H522 lung): 86.8 µM | GI50 (A498 renal): 15.6 µM | TGI (A498 renal): 34.9 µM | GI50 (UACC-62 melanoma): 17.1 µM | TGI (UACC-62 melanoma): 36.5 µM | GI50 (HCT-15 colon): 10.8 µM | TGI (HCT-15 colon): 32 µM | GI50 (TK-10 renal): 19.2 µM | TGI (TK-10 renal): 48.1 µM | GI50 (786-0 renal): 16.9 µM | TGI (786-0 renal): 32.5 µM | GI50 (NCI-H460 lung): 11.6 µM | TGI (NCI-H460 lung): 37.7 µM | GI50 (DU-145 prostate): 19.2 µM | TGI (DU-145 prostate): 36.2 µM | GI50 (U251 CNS): 16.4 µM | TGI (U251 CNS): 47.5 µM | GI50 (NCI-H226 lung): 23 µM | TGI (NCI-H226 lung): 55.4 µM | GI50 (MALME-3M melanoma): 22.6 µM | TGI (MALME-3M melanoma): 42.7 µM | GI50 (HT29 colon): 13.8 µM | TGI (HT29 colon): 34 µM | GI50 (EKVX NSCLC): 16.2 µM | TGI (EKVX NSCLC): 40.5 µM | GI50 (KM12 colon): 10.6 µM | TGI (KM12 colon): 23.5 µM | GI50 (UO-31 renal): 20.2 µM | TGI (UO-31 renal): 64.7 µM | GI50 (OVCAR-3 ovarian): 24.7 µM | TGI (OVCAR-3 ovarian): 72.1 µM | GI50 (SF-539 CNS): 16.7 µM | TGI (SF-539 CNS): 35.1 µM | GI50 (LOX IMVI melanoma): 17.7 µM | TGI (LOX IMVI melanoma): 42.8 µM | GI50 (OVCAR-8 ovarian): 24.5 µM | TGI (OVCAR-8 ovarian): 88.1 µM | GI50 (M14 melanoma): 18.2 µM | TGI (M14 melanoma): 37.1 µM | GI50 (MDA-MB-231 breast): 25.6 µM | TGI (MDA-MB-231 breast): 59.7 µM | GI50 (RPMI-8226 leukemia): 4.01 µM | TGI (RPMI-8226 leukemia): 17.7 µM | GI50 (COLO 205 colon): 16.4 µM | TGI (COLO 205 colon): 70 µM | GI50 (HCT-116 colon): 11.2 µM | TGI (HCT-116 colon): 24.8 µM | GI50 (NCI-H23 lung): 18.5 µM | TGI (NCI-H23 lung): 39.2 µM | GI50 (SK-MEL-28 melanoma): 15.8 µM | TGI (SK-MEL-28 melanoma): 33.4 µM | GI50 (NCI/ADR-RES ovarian): 15.4 µM | TGI (NCI/ADR-RES ovarian): 40.2 µM | GI50 (HCC-2998 colon): 11 µM | TGI (HCC-2998 colon): 26.7 µM | GI50 (SF-295 CNS): 14.3 µM | TGI (SF-295 CNS): 31.9 µM | GI50 (SNB-19 CNS): 17.8 µM | TGI (SNB-19 CNS): 48.4 µM | GI50 (K-562 leukemia): 5.79 µM | TGI (K-562 leukemia): 20.9 µM | GI50 (UACC-257 melanoma): 26.7 µM | TGI (UACC-257 melanoma): 61.4 µM | GI50 (OVCAR-4 ovarian): 26.3 µM | TGI (OVCAR-4 ovarian): 79.8 µM | GI50 (SK-MEL-5 melanoma): 14.7 µM | TGI (SK-MEL-5 melanoma): 28.4 µM | GI50 (T-47D breast): 8.21 µM | TGI (T-47D breast): 49 µM | GI50 (SN12C renal): 17.8 µM | TGI (SN12C renal): 41.3 µM | GI50 (HOP-62 NSCLC): 19.6 µM | TGI (HOP-62 NSCLC): 38.5 µM | GI50 (SW-620 colon): 16.1 µM | TGI (SW-620 colon): 36.7 µM | GI50 (CCRF-CEM leukemia): 3.42 µM | TGI (CCRF-CEM leukemia): 13.3 µM | GI50 (HL-60(TB) leukemia): 8.61 µM | TGI (HL-60(TB) leukemia): 25.3 µM
